Earlier results as cited in US8293789B2, “Method of preparing a latanoprost opthalmic solution and the resulting solution” (priority 2004, dated 2012).

Tests used:
[1] = system: patients with open angle glaucoma or ocular hypertension; settings: for circadian / nocturnal reduction of intraocular pressure: day versus night
[2] = not given; remark: listed apart in the source

time to peak concentration in the aqueous humor (after local administration) | plasmatic mid life (in humans, sentence follows statements on latanoprost acid) | time to maximum concentration in the aqueous humor (studies on humans, following administration) | solubility in organic solvents ([2]; acetone, ethanol, ethyl acetate, isopropanol, methanol and octanol) | solubility in acetonitrile ([2]; acetonitrile) | solubility in water ([2]; water) | Compound | circadian / nocturnal reduction of intraocular pressure [1] | effectiveness of one sole daily application versus double daily application of other glaucoma agents ([1]; latanoprost 0.005%, patients with open angle glaucoma or ocular hypertension) | patients with a reduction in the intraocular pressure of at least 30% ([1]; patients treated with latanoprost, after 6 months of treatment) | effectiveness as hypotensive agent compared with unoprostone ([1]; patients, versus unoprostone)
 |  |  |  |  |  | CCN[C@H]1C[C@H](C)S(=O)(=O)c2sc(S(N)(=O)=O)cc21 [Dorzolamide] | less effective than latanoprost |  |  | 
 |  |  |  |  |  | CC(C)(C)NC[C@H](O)COc1nsnc1N1CCOCC1 [timolol] | less effective during the night |  |  | 
2 h | 17 min | approximately two | freely soluble | highly soluble | practically insoluble | CC(C)OC(=O)CCC/C=C\C[C@@H]1[C@@H](CC[C@@H](O)CCc2ccccc2)[C@H](O)C[C@@H]1O [latanoprost, isopropilic ester of the prostaglandin F2α 17-phenyl-13,14dihydro] | more uniform circadian reduction | at least as effective | 52% | better results
